# Reference: patent US20260048046A1, “METHOD FOR IMPROVING GROWTH PERFORMANCE IN FEEDLOT CATTLE” (Elanco US Inc., priority 2022, published 2026)
# Marks after values point to notes of the source that are not given here.
# System: beef feedlot cattle
# Assay: 56-d study: carcass characteristics
# Assay type: in vivo
# Set-up: Marbling score, difference from control: scale not given here
# Details: for YG 1, proportion of cattle graded / YG 2, proportion of cattle graded / YG 3, proportion of cattle graded / YG 4, proportion of cattle graded / YG 5, proportion of cattle graded: arithmetic mean; for Adjusted fat thickness / Dressing percentage / KPH fat / Ribeye Area / Yield grade / carcass weight (HCW) / Marbling score: 56 d treatment, steers, LS mean; for Marbling score: 400 Small, 500 Modest, 600 Moderate
# Experimental: LUB was removed from feed at least 24 h before harvest to comply with the Food Use Authorization (FDA, 2016) granted by the FDA. Cattle were loaded for harvest shortly after collection of final pen live weights and transported to the slaughter facility at a stocking density of approximately 30 steers (i.e., half a pen of 60 steers) in one semi-trailer. The slaughter process was conducted in accordance with USDA requirements and standard slaughter site procedures. Animal/carcass identification was maintained by sequentially recording the ear tag numbers of cattle as they were slaughtered via a sequence number affixed to each carcass by trained personnel from the Beef Carcass Research Center (BCRC; West Texas A&M University, Canyon, TX) and correlating the individual ear tag number to the plant-assigned carcass ID number, which remained intact throughout the carcass data/sample collection phase. Following an industry-standard dressing procedure, each carcass was weighed for determination of HCW.
# Carcass evaluation occurred following the commercial plant's standard chilling period. The carcass quality and yield grade factors, marbling score, ribeye area, and objective 12th rib fat thickness were captured objectively using the VBG2000 camera system. Additionally, adjusted 12th rib fat thickness, kidney, pelvic, and heart (KPH) fat assessment, and other defects (dark cutters, blood splash, etc.) were recorded by trained personnel (BCRC). Skeletal maturity was obtained only on carcasses that were “B” maturity or greater, otherwise, skeletal, lean, and overall maturity and lean color were not obtained.
# Carcass defects (dark cutters, excessive trim) were noted by exception. The objective fat thickness was used to calculate the USDA yield grade. All carcasses were considered to be less than 30 mo of age; therefore, USDA quality grade was determined by using marbling score (USDA, 2019). The severity of the dark cutting condition was indicated by assigning the dark cutting carcasses to ⅓, ⅔, or full dark categories. Dark cutters were not excluded when determining quality grade, however, a summary of the frequency of dark cutter carcasses by treatment group is provided. Carcasses identified as excessively trimmed (greater than approximately 9.1 kg trim) were not excluded from the analysis, however, a summary of the frequency of excessively trimmed carcasses by treatment group is provided.
# The label claim variable of cumulative NH3 gas emissions over the treatment period normalized by final BW (with d −59 BW as a covariate) for the period and HCW (g of gas kg^−1 of BW or g of gas kg^−1 HCW) was determined by utilizing NH3 gas emissions equations developed from the LUB clinical effectiveness study (FDA-FOI, 2018) and validated using animals of similar BW as described by Brown et al. (2019). The pen was the experimental unit for each outcome. Differences were deemed significant using a two-sided test at Ptrt≤0.05, however, a less stringent significance threshold of Ptrt≤0.10 was used for abnormal health observations. Fixed effect of treatment and random effects of time replicate and block within time replicate were included in the model. Discrete variables were analyzed using a generalized linear mixed model, Proc GLIMMIX SAS version 9.4 unless there were convergence problems due to sparseness of data. A binomial distribution was assumed and a logit link used in the analysis. Contrasts were constructed between the CON group and each non-CON dosage group, and differences were deemed significant at Pdose≤0.05. If convergence problems arose due to sparseness of data, Fisher's exact test (binomial data; Proc FREQ in SAS) or Wilcoxon's rank-sum test (categorical data; Proc NARIWAY in SAS) was used to evaluate differences between the CON group and the non-CON dosage groups. In all cases except for health observations, differences were deemed significant at Ptrt≤0.05 for these primary discrete variables. […]
# [1] = 3.5 and 5.5 mg kg^−1 LUB groups, 56 d, Ptrt≤0.05
# [2] = all LUB groups, 56 d, Ptrt≤0.05
compound,measurement,setting,value
"CC(C)(Cc1ccc(Oc2ncccc2C#N)cc1)NC[C@H](O)COc1ccccc1-c1cccs1 [LUB, 2-{4-[2-({(2S)-2-Hydroxy-3-[2-(2-thienyl)phenoxy]propyl}amino)-2-methylpropyl]phenoxy}nicotinonitrile]",Frequency of dark cutter carcasses,"1.5 mg kg^−1 LUB group, 56 d",0.6%
same,Frequency of excessively trimmed carcasses,"1.5 mg kg^−1 LUB group, 56 d",1.4%
same,"YG 1, proportion of cattle graded","1.5 mg·kg^−1 DM LUB, 56 d",5.4%
same,"YG 2, proportion of cattle graded","1.5 mg·kg^−1 DM LUB, 56 d",25.8^x %
same,"YG 3, proportion of cattle graded","1.5 mg·kg^−1 DM LUB, 56 d",49.0%
same,"YG 4, proportion of cattle graded","1.5 mg·kg^−1 DM LUB, 56 d",17.1^y %
same,"YG 5, proportion of cattle graded","1.5 mg·kg^−1 DM LUB, 56 d",2.7%
same,"KPH fat, difference from control","1.5 mg·kg^−1 vs. control, 56 d",0.01%
same,"Marbling score, difference from control","1.5 mg·kg^−1 vs. control, 56 d",−13.0
same,"Marbling score, percent change from Control","1.5 mg·kg^−1 vs. control, 56 d",−2.8%
same,"Ribeye area, difference from control","1.5 mg·kg^−1 vs. control, 56 d",3.3 cm^2
same,"Ribeye area, percent change from Control","1.5 mg·kg^−1 vs. control, 56 d",3.5%
same,"carcass weight (HCW), difference from control","1.5 mg·kg^−1 vs. control, 56 d",11.3 kg
same,"carcass weight (HCW), percent change from Control","1.5 mg·kg^−1 vs. control, 56 d",2.8%
same,Frequency of dark cutter carcasses,"3.5 mg kg^−1 LUB group, 56 d",0.3%
same,Frequency of excessively trimmed carcasses,"3.5 mg kg^−1 LUB group, 56 d",1.8%
same,"YG 1, proportion of cattle graded","3.5 mg·kg^−1 DM LUB, 56 d",5.5%
same,"YG 2, proportion of cattle graded","3.5 mg·kg^−1 DM LUB, 56 d",31.5^y %
same,"YG 3, proportion of cattle graded","3.5 mg·kg^−1 DM LUB, 56 d",44.0%
same,"YG 4, proportion of cattle graded","3.5 mg·kg^−1 DM LUB, 56 d",17.3^y %
same,"YG 5, proportion of cattle graded","3.5 mg·kg^−1 DM LUB, 56 d",1.7%
same,"KPH fat, difference from control","3.5 mg·kg^−1 vs. control, 56 d",0.01%
same,"Marbling score, difference from control","3.5 mg·kg^−1 vs. control, 56 d",−23.0
same,"Marbling score, percent change from Control","3.5 mg·kg^−1 vs. control, 56 d",−4.9%
same,"Ribeye area, difference from control","3.5 mg·kg^−1 vs. control, 56 d",5.4 cm^2
same,"Ribeye area, percent change from Control","3.5 mg·kg^−1 vs. control, 56 d",5.8%
same,"carcass weight (HCW), difference from control","3.5 mg·kg^−1 vs. control, 56 d",15.9 kg
same,"carcass weight (HCW), percent change from Control","3.5 mg·kg^−1 vs. control, 56 d",3.9%
same,Frequency of dark cutter carcasses,"5.5 mg kg^−1 LUB group, 56 d",0.1%
same,Frequency of excessively trimmed carcasses,"5.5 mg kg^−1 LUB group, 56 d",1.4%
same,"YG 1, proportion of cattle graded","5.5 mg·kg^−1 DM LUB, 56 d",6.2%
same,"YG 2, proportion of cattle graded","5.5 mg·kg^−1 DM LUB, 56 d",31.6^y %
same,"YG 3, proportion of cattle graded","5.5 mg·kg^−1 DM LUB, 56 d",44.2%
same,"YG 4, proportion of cattle graded","5.5 mg·kg^−1 DM LUB, 56 d",16.0^y %
same,"YG 5, proportion of cattle graded","5.5 mg·kg^−1 DM LUB, 56 d",2.0%
same,"KPH fat, difference from control","5.5 mg·kg^−1 vs. control, 56 d",0.03%
same,"Marbling score, difference from control","5.5 mg·kg^−1 vs. control, 56 d",−27.0
same,"Marbling score, percent change from Control","5.5 mg·kg^−1 vs. control, 56 d",−5.7%
same,"Ribeye area, difference from control","5.5 mg·kg^−1 vs. control, 56 d",5.7 cm^2
same,"Ribeye area, percent change from Control","5.5 mg·kg^−1 vs. control, 56 d",6.1%
same,"carcass weight (HCW), difference from control","5.5 mg·kg^−1 vs. control, 56 d",17.1 kg
same,"carcass weight (HCW), percent change from Control","5.5 mg·kg^−1 vs. control, 56 d",4.2%
same,Proportion of carcasses grading Select compared to CON,[1],increased
same,Yield grade 2 compared to CON,[1],increased
same,Adjusted fat thickness,LUB 1.5 mg·kg^−1 DM,1.53 cm
same,Dressing percentage,LUB 1.5 mg·kg^−1 DM,61.8%
same,KPH fat,LUB 1.5 mg·kg^−1 DM,2.12%
same,Ribeye Area,LUB 1.5 mg·kg^−1 DM,97.0 cm^2
same,Yield grade,LUB 1.5 mg·kg^−1 DM,3.14
same,carcass weight (HCW),LUB 1.5 mg·kg^−1 DM,418.3 kg
same,Marbling score,LUB 1.5 mg·kg^−1 DM,460
same,Adjusted fat thickness,LUB 3.5 mg·kg^−1 DM,1.48 cm
same,Dressing percentage,LUB 3.5 mg·kg^−1 DM,62.1%
same,KPH fat,LUB 3.5 mg·kg^−1 DM,2.12%
same,Ribeye Area,LUB 3.5 mg·kg^−1 DM,99.1 cm^2
same,Yield grade,LUB 3.5 mg·kg^−1 DM,3.02
same,carcass weight (HCW),LUB 3.5 mg·kg^−1 DM,423.9 kg
same,Marbling score,LUB 3.5 mg·kg^−1 DM,450
same,Adjusted fat thickness,LUB 5.5 mg·kg^−1 DM,1.48 cm
same,Dressing percentage,LUB 5.5 mg·kg^−1 DM,62.3%
same,KPH fat,LUB 5.5 mg·kg^−1 DM,2.14%
same,Ribeye Area,LUB 5.5 mg·kg^−1 DM,99.4 cm^2
same,Yield grade,LUB 5.5 mg·kg^−1 DM,3.01
same,carcass weight (HCW),LUB 5.5 mg·kg^−1 DM,425.1 kg
same,Proportion of carcasses grading Upper 2/3 Choice compared to CON,[2],decreased
same,Yield grade 4 compared to CON,[2],decreased
